In patent publication US4476120A, “Thiolic derivatives of erythromycin having therapeutic activity, and pharmaceutical compositions containing them” (Sigma Tau Indistrie Farmaceutiche Riunites, p.A, priority 1982, dated 1984):
Values after ≈ are worked out from the molar mass of the structure shown.

How the values were obtained:
Strept. faecalis SS 19 = assay type: cell-based; details: Brain Heart Infusion, estolate and RV11-RV15 previously hydrolized, unit assumed
Staph. albus SS 04 = assay type: cell-based; details: Brain Heart Infusion, estolate and RV11-RV15 previously hydrolized, unit assumed
B. subtilis ATCC 6633 = assay type: cell-based; details: Brain Heart Infusion, estolate and RV11-RV15 previously hydrolized, unit assumed
E. aerogenes SS 011 = assay type: cell-based; details: Brain Heart Infusion, estolate and RV11-RV15 previously hydrolized, unit assumed
E. coli SS 07 = assay type: cell-based; details: Brain Heart Infusion, estolate and RV11-RV15 previously hydrolized, unit assumed
Staph. aureus SS 07 [1] = assay type: cell-based; details: Brain Heart Infusion, estolate and RV11-RV15 previously hydrolized, unit assumed
Br. melitensis SS 19 = assay type: cell-based; details: unit assumed
E. cloacae SS 07 = assay type: cell-based; details: Brain Heart Infusion, estolate and RV11-RV15 previously hydrolized, unit assumed
Acute toxicity = assay type: in vivo; details: mortality 10 days after treatment, mice
Protocol: The acute toxicity was assessed in Swiss white mice by oral and intravenous route. The LD50 values have been calculated by the methods of Probits, starting from the mortality recorded 10 days after the treatment.

[2] = test system: Strept. haemolyticus SS 18; assay type: cell-based; details: Brain Heart Infusion, estolate and RV11-RV15 previously hydrolized, unit assumed
Staph. aureus SS 09 = assay type: cell-based; details: Brain Heart Infusion, estolate and RV11-RV15 previously hydrolized, unit assumed
H. pertussis SS 03 = assay type: cell-based; details: Brain Heart Infusion, estolate and RV11-RV15 previously hydrolized, unit assumed
Ps. aeruginosa SS 10 = assay type: cell-based; details: Brain Heart Infusion, estolate and RV11-RV15 previously hydrolized, unit assumed
S. infantis SS 08 = assay type: cell-based; details: Brain Heart Infusion, estolate and RV11-RV15 previously hydrolized, unit assumed
[3] = test system: Strept. haemolyticus SS 17; assay type: cell-based; details: Brain Heart Infusion, estolate and RV11-RV15 previously hydrolized, unit assumed
Pr. vulgaris SS 10 = assay type: cell-based; details: Brain Heart Infusion, estolate and RV11-RV15 previously hydrolized, unit assumed
E. coli SS 05 = assay type: cell-based; details: Brain Heart Infusion, estolate and RV11-RV15 previously hydrolized, unit assumed
H. influentiae SS 02 = assay type: cell-based; details: Brain Heart Infusion, estolate and RV11-RV15 previously hydrolized, unit assumed
Citrobacter SS 09 = assay type: cell-based; details: Brain Heart Infusion, estolate and RV11-RV15 previously hydrolized, unit assumed
B. anthranis SS 08 = assay type: cell-based; details: Brain Heart Infusion, estolate and RV11-RV15 previously hydrolized, unit assumed
[4] = Histological examination of bronchi after SO2 inhalation; assay type: in vivo, Sprague Dawley male rats; details: i.m., 250 mg/kg
C. diphtheriae SS 19 = assay type: cell-based; details: Brain Heart Infusion, estolate and RV11-RV15 previously hydrolized, unit assumed
B. cereus ATCC 11778 = assay type: cell-based; details: Brain Heart Infusion, estolate and RV11-RV15 previously hydrolized, unit assumed
B. subtilis SS 127 = assay type: cell-based; details: Brain Heart Infusion, estolate and RV11-RV15 previously hydrolized, unit assumed
S. heidelberg SS 18 = assay type: cell-based; details: Brain Heart Infusion, estolate and RV11-RV15 previously hydrolized, unit assumed
Br. abortus SS 7 = assay type: cell-based; details: Brain Heart Infusion, estolate and RV11-RV15 previously hydrolized, unit assumed
D. pneumoniae SS 23 = assay type: cell-based; details: Brain Heart Infusion, estolate and RV11-RV15 previously hydrolized, unit assumed
Staph. aureus SS 07 [5] = assay: Experimental infection induced by Staph. aureus SS 07; assay type: in vivo, Swiss white mice; details: Staph. aureus SS 07, mg/kg of erythromycin, survival after 7 days, 10080 min
Summary of the method: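 Swiss mice of 20 g infected parenterally with lethal amounts of Staph. aureus SS 07 or D. pneumoniae SS 23. Antibiotics were given at infection and again 6 and 24 h later. ED50 was derived from survival at 7 days.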

Staph. aureus SS 10 = assay type: cell-based; details: Brain Heart Infusion, estolate and RV11-RV15 previously hydrolized, unit assumed
Pr. mirabilis SS 09 = assay type: cell-based; details: Brain Heart Infusion, estolate and RV11-RV15 previously hydrolized, unit assumed
Kl. pneumoniae SS 04 = assay type: cell-based; details: Brain Heart Infusion, estolate and RV11-RV15 previously hydrolized, unit assumed
Description: (§1) In the following table I the MIC/ml values are indicated corresponding to the lowest concentration capable of inducing a complete inhibition of the bacterial development.

H. tubercolosis SS 03 = assay type: cell-based; details: Brain Heart Infusion, estolate and RV11-RV15 previously hydrolized, unit assumed
Description: as §1

Citrobacter SS 05 = assay type: cell-based; details: Brain Heart Infusion, estolate and RV11-RV15 previously hydrolized, unit assumed
[6] = Mucolytic activity: obstruction of the bronchial tract after SO2 inhalation; assay type: in vivo, Sprague Dawley male rats; details: i.m., 250 mg/kg; SO2, 15 days
Staph. albus SS 03 = assay type: cell-based; details: Brain Heart Infusion, estolate and RV11-RV15 previously hydrolized, unit assumed
S. lutea ATCC 9341 = assay type: cell-based; details: Brain Heart Infusion, estolate and RV11-RV15 previously hydrolized, unit assumed
Cl. tetani SS 17 = assay type: cell-based; details: Brain Heart Infusion, estolate and RV11-RV15 previously hydrolized, unit assumed
Staph. aureus SS 08 = assay type: cell-based; details: Brain Heart Infusion, estolate and RV11-RV15 previously hydrolized, unit assumed
B. anthranis SS 09 = assay type: cell-based; details: B. anthranis SS 09 (14 bis); Brain Heart Infusion; estolate and RV11-RV15 previously hydrolized; unit assumed
Kl. aerogenes SS 71 = assay type: cell-based; details: Brain Heart Infusion, estolate and RV11-RV15 previously hydrolized, unit assumed
E. coli SS 04 = assay type: cell-based; details: Brain Heart Infusion, estolate and RV11-RV15 previously hydrolized, unit assumed
E. coli SS 06 = assay type: cell-based; details: Brain Heart Infusion, estolate and RV11-RV15 previously hydrolized, unit assumed

For `CC[C@H]1OC(=O)[C@H](C)[C@@H](O[C@H]2C[C@@](C)(OC)[C@@H](O)[C@H](C)O2)[C@H](C)[C@@H](O[C@@H]2O[C@H](C)C[C@H](N(C)C)[C@H]2O)[C@](C)(O)C[C@@H](C)C(=O)[C@H](C)[C@@H](O)[C@]1(C)O` [RV04, erythromycin-S-carboxymethylcysteinate], the MIC (Strept. faecalis SS 19) was 0.05 µg/mL (≈ 0.0681 µM), the MIC (Staph. albus SS 04) was 0.05 µg/mL (≈ 0.0681 µM) and the MIC (B. subtilis ATCC 6633) was 0.025 µg/mL (≈ 0.0341 µM). The MIC (E. aerogenes SS 011) was 50 µg/mL (≈ 68.1 µM), the MIC (E. coli SS 07) was 25 µg/mL (≈ 34.1 µM) and the MIC (Staph. aureus SS 07 [1]) was 0.025 µg/mL (≈ 0.0341 µM). The MIC (Br. melitensis SS 19) was 6 µg/mL (≈ 8.18 µM), the MIC (E. cloacae SS 07) was > 200 µg/mL and the “LD50 (reliability limits)” value (Acute toxicity; i.v., 14400 min) was 439.46 (545.44-354.08) mg.kg. The “LD50 (reliability limits)” value (Acute toxicity; os) was > 3000 mg·kg, the MIC [2] was 1.5 µg/mL (≈ 2.04 µM) and the MIC (Staph. aureus SS 09) was 0.025 µg/mL (≈ 0.0341 µM). It also gave an MIC (H. pertussis SS 03) of 0.8 µg/mL (≈ 1.09 µM), an MIC (Ps. aeruginosa SS 10) of 100 µg/mL (≈ 136 µM) and an MIC (S. infantis SS 08) of 100 µg/mL (≈ 136 µM). For the same molecule, the MIC [3] was 1.5 µg/mL (≈ 2.04 µM), the MIC (Pr. vulgaris SS 10) was > 200 µg/mL and the MIC (E. coli SS 05) was 50 µg/mL (≈ 68.1 µM). For the same molecule, the MIC (H. influentiae SS 02) was 1.5 µg/mL (≈ 2.04 µM), the MIC (Citrobacter SS 09) was > 200 µg/mL and the MIC (B. anthranis SS 08) was 0.4 µg/mL (≈ 0.545 µM). The “histological appearance of non obstructed bronchi” value ([4]; free non obstructed) was “practically normal appearance”, the “histological appearance of obstructed bronchial tract” value ([4]; obstructed) was “an appearance like that of the control animals” and the MIC (C. diphtheriae SS 19) was 0.205 µg/mL (≈ 0.279 µM). It also gave an MIC (B. cereus ATCC 11778) of 0.2 µg/mL (≈ 0.273 µM), an MIC (B. subtilis SS 127) of 0.025 µg/mL (≈ 0.0341 µM) and an MIC (S. heidelberg SS 18) of 100 µg/mL (≈ 136 µM). The MIC (Br. abortus SS 7) was 6 µg/mL (≈ 8.18 µM), the MIC (D. pneumoniae SS 23) was 0.05 µg/mL (≈ 0.0681 µM) and the “ED50 (reliability limits)” value (Staph. aureus SS 07 [5]; os) was 2.31 (2.55-2.09) mg/kg. The “ED50 (reliability limits)” value (Staph. aureus SS 07 [5]; s.c.) was 1.00 (1.24-0.80) mg/kg, the MIC (Staph. aureus SS 10) was 0.2 µg/mL (≈ 0.273 µM) and the MIC (Pr. mirabilis SS 09) was 200 µg/mL (≈ 273 µM). For the same molecule, the MIC (Kl. pneumoniae SS 04) was 100 µg/mL (≈ 136 µM), the MIC (H. tubercolosis SS 03) was 50 µg/mL (≈ 68.1 µM) and the MIC (Citrobacter SS 05) was > 200 µg/mL. The “Partial obstruction (% incidence)” value [6] was 13.33%, the “Total obstruction, compact plug (% incidence)” value [6] was 20% and the “Total obstruction, nodular mass (% incidence)” value [6] was 13.33%. For the same molecule, the “Total obstruction, pimply mass (% incidence)” value [6] was 6.66%, the MIC (Staph. albus SS 03) was 0.1 µg/mL (≈ 0.136 µM) and the MIC (S. lutea ATCC 9341) was 0.01 µg/mL (≈ 0.0136 µM). For the same molecule, the MIC (Cl. tetani SS 17) was 0.2 µg/mL (≈ 0.273 µM), the MIC (Staph. aureus SS 08) was 0.05 µg/mL (≈ 0.0681 µM) and the MIC (B. anthranis SS 09) was 0.2 µg/mL (≈ 0.273 µM). The MIC (Kl. aerogenes SS 71) was 50 µg/mL (≈ 68.1 µM), the MIC (E. coli SS 04) was 100 µg/mL (≈ 136 µM) and the MIC (E. coli SS 06) was 100 µg/mL (≈ 136 µM).
